Test results taken from the RepoRT retention time repository.

Assay: Agilent ZORBAX 300 SB-C18, 150 × 1 mm, 3.5 µm; A: water + 0.01% heptafluorobutyric acid; B: acetonitrile + 0.01% heptafluorobutyric acid; gradient (min/%B) 0/0 100/90
Details: stereoisomer not certain

`CC(=O)Nc1ccc(C(=O)NCCc2c[nH]c3ccc(C)cc23)cc1` and `CC(C)(C)c1ccc(C(=O)Nc2ccc(N)cc2)cc1` are within 1.5-fold of each other in LC retention time: 11.1 min for the first, 11.2 min for the second.

`Cc1ccc(-c2csc(-c3cccnc3)n2)cc1C` and `c1ccc(-c2nc(-c3cccnc3)[nH]c2-c2ccccc2)cc1` are within 1.5-fold of each other in LC retention time: 11.3 min for the first, 11 min for the second.

`O=C1CCC=C1CSc1ccccc1` and `c1ccc2c(c1)CCc1c-2[nH]c2ccccc12` are within 1.5-fold of each other in LC retention time: 13.1 min for the first, 17.1 min for the second.

First: Nc1cccc(S(=O)(=O)O)c1
Second: Nc1cccc(CCC(=O)O)c1
The LC retention time of the first is 4.9-fold lower: 1.45 min for the first, 7.06 min for the second.

`O=C(CCC1CCCC1)N1CCN(C(=O)COc2ccccc2)CC1` and `O=C(NCCN1CCN(Cc2ccccc2)CC1)C(=O)Nc1ccccc1` are within 1.5-fold of each other in LC retention time: 13.7 min for the first, 9.75 min for the second.

First: O=c1[nH]c2ccccc2c(=O)n1-c1cccnc1
Second: c1ccc2c(c1)[nH]c1ccccc12
The LC retention time of the first is 1.8-fold lower: 8.1 min for the first, 14.6 min for the second.

`O=C(C=Cc1ccccc1)c1ccc(O)cc1O` and `S=C(NN=Cc1cccnc1)Nc1ccccc1` are within 1.5-fold of each other in LC retention time: 14.3 min for the first, 9.9 min for the second.

Going from `NC1CCOCC1` to `CCC(C)C(N)C(=O)N1CCCC1C(=O)NC(C(=O)O)C(C)CC` (stereo not given), the LC retention time rises from 4.24 min to 8.56 min (2-fold).

`Cn1c(=O)c2cc(S(=O)(=O)O)ccc2n(C)c1=O` and `CN1CC(=O)N(c2cccc(N)c2)C1=O` are within 1.5-fold of each other in LC retention time: 5.36 min for the first, 6.98 min for the second.

Going from `COC(=O)c1cccc(C(=O)OC)n1` to `COC(=O)c1ccc(C(=O)OC)c(NC(=O)CC(c2ccccc2)c2ccccc2)c1`, the LC retention time rises from 8.45 min to 18 min (2.1-fold).

Compared with `Cc1ccnc(=O)[nH]1`, `CCc1ncc(C)[nH]1` is 2.2-fold higher in LC retention time: 2.97 min for the first, 6.62 min for the second.

Compared with `O=C1C(=Cc2ccoc2)CCCC1=Cc1ccoc1`, `Nc1ncc2c(n1)CCC2` is 2.3-fold lower in LC retention time: 15.7 min for the first, 6.96 min for the second.

`Cc1cccc2c1CC(C)(C)NC2=S` and `CC1N(CCC(N)=O)c2ccccc2C1(C)C` (stereo not given) are within 1.5-fold of each other in LC retention time: 13.3 min for the first, 11.8 min for the second.

`Cc1[nH]c(C=O)c(C)c1C` and `Cc1[nH][nH]c(=O)c1CCC(=O)NN=Cc1c(C)[nH]c2ccccc12` are within 1.5-fold of each other in LC retention time: 10.3 min for the first, 8.93 min for the second.

Compared with `CCC(N)=O`, `CCOC(N)=O` is 2.1-fold higher in LC retention time: 2.3 min for the first, 4.72 min for the second.

Going from `CCN(CC)CC(CP(=O)(O)O)P(=O)(O)O` (stereo not given) to `NC(=O)NCCCC(N)C(=O)O` (stereo not given), the LC retention time rises from 1.13 min to 1.71 min (1.5-fold).

`CN(C)c1ccc(N=C2C=CC(=Nc3ccc(N(C)C)cc3)C=C2)cc1` and `Oc1ccc(-c2cccc(-c3ccc(O)cc3)n2)cc1` are within 1.5-fold of each other in LC retention time: 9.47 min for the first, 10.1 min for the second.

`CCc1ccc(C(=O)CC(Nc2ccccc2)c2ccccc2)cc1` (stereo not given) and `O=C(c1ccc(-c2ccccc2)cc1)N1CCN(c2ccccc2)CC1` are within 1.5-fold of each other in LC retention time: 18.4 min for the first, 16.5 min for the second.

`c1cncc(-c2ncc[nH]2)c1` and `c1cncc(Cn2cccc2)c1` are within 1.5-fold of each other in LC retention time: 6.65 min for the first, 8.31 min for the second.

Compared with `NC(=O)c1cn(CC(=O)O)c(=O)[nH]c1=O`, `NC(CC(=O)O)c1ccc(C(=O)O)cc1` (stereo not given) is 4-fold higher in LC retention time: 1.6 min for the first, 6.32 min for the second.

`CCCC[N+](CCCC)(CCCC)CCCC` and `CCCCCCCCN` are within 1.5-fold of each other in LC retention time: 13.2 min for the first, 10.2 min for the second.

First: CC(=O)c1c[nH]cc1C
Second: CNC(C)=O
The LC retention time of the first is 3.6-fold higher: 7.66 min for the first, 2.1 min for the second.

`CCCNC(=O)c1ccccc1N` and `Cc1ccc(CCC(=O)O)cc1N` are within 1.5-fold of each other in LC retention time: 9.35 min for the first, 7.58 min for the second.

`COc1ccc(CNCc2ccc(C(C)C)cc2)cc1` and `COc1ccc(NC(C)c2ccccc2)cc1` (stereo not given) are within 1.5-fold of each other in LC retention time: 11.5 min for the first, 10.7 min for the second.

`CCC(C)c1ccccc1NC(=S)Nc1cccnc1` (stereo not given) and `CN(C)CCCNC(=O)Nc1cccc2ccccc12` are within 1.5-fold of each other in LC retention time: 11 min for the first, 8.85 min for the second.

`NC1=NCCS1` and `Nc1ncnc2ccccc12` are within 1.5-fold of each other in LC retention time: 5.28 min for the first, 6.84 min for the second.

Compared with `c1cn[nH]n1`, `Cc1cc(C)ncn1` is 3.6-fold higher in LC retention time: 2.1 min for the first, 7.51 min for the second.

With `CN(C)CCOC(c1ccccc1)c1ccccc1` the LC retention time was 10.9 min.
